Data on 24 molecules can be found in patent publication US9981940B2, “Aryl sulfide derivatives and aryl sulfoxide derivatives as acaricides and insecticides” (BAYER CROPSCIENCE AKTIENGESELLSCHAFT, priority 2013, dated 2018).

The nature of data set [1]: log P by HPLC (OECD Guideline 117), method [a] acidic range. In kind it is physicochemical. The conditions noted are these: for logP[a]: HPLC, method [a] acidic range; for chromatographic logP: reversed-phase C18 HPLC column, acidic range. The procedure:
(§1) The log P values were determined analogously to OECD Guideline 117 (EC Directive 92/69/EEC) by HPLC (high-performance liquid chromatography) using reversed-phase columns (C 18), by the following methods:
[a] The LC-MS determination in the acidic range is effected at pH 2.7 with 0.1% aqueous formic acid and acetonitrile (contains 0.1% formic acid) as eluents; linear gradient from 10% acetonitrile to 95% acetonitrile.

The next data set concerns Tetranychus urticae. The data set is described as follows: Tetranychus urticae spray test, OP-resistant (TETRUR). To be noted: application rate of 500 g/ha, after 6 days; for pest or weed control at 500 g/ha: Tetranychus urticae, 144 h, read-out: efficacy. In kind it is in vivo. The essentials:
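Bean leaf discs infested with all stages of an OP-resistant Tetranychus urticae strain sprayed with compound in acetone/DMF with alkylaryl polyglycol ether emulsifier, diluted in water. Efficacy in % scored after 6 days; 100% means all mites killed.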

A further data set has as its system Phaedon cochleariae. Briefly: Phaedon cochleariae spray test (PHAECO). In kind it is in vivo. To be noted: after 7 days; for pest or weed control at 500 g/ha: Phaedon cochleariae, 168 h, read-out: efficacy. The method, then: Phaedon cochleariae—Spray Test (PHAECO)
• Solvent: 78.0 parts by weight of acetone • 1.5 parts by weight of dimethylformamide • Emulsifier: 0.5 part by weight of alkylaryl polyglycol ether
To produce an appropriate active ingredient formulation, 1 part by weight of active ingredient is mixed with the specified amounts of solvent and emulsifier, and the concentrate is diluted to the desired concentration with emulsifier-containing water.
Discs of Chinese cabbage leaves (Brassica pekinensis) are sprayed with an active ingredient formulation of the desired concentration and, after drying, populated with larvae of the mustard beetle (Phaedon cochleariae).
After 7 days, the efficacy in % is determined 100% means that all beetle larvae have been killed; 0% means that none of the beetle larvae have been killed.

Data set [2] is described as follows: log P by HPLC (OECD Guideline 117), method [b] neutral range. In kind it is physicochemical. To be noted: HPLC; for logP[b]: method [b] neutral range; for chromatographic logP: reversed-phase C18 HPLC column, neutral range, pH 7.8. The procedure:
as §1
[b] The LC-MS determination in the neutral range is effected at pH 7.8 with 0.001 molar aqueous ammonium hydrogencarbonate solution and acetonitrile as eluents; linear gradient from 10% acetonitrile to 95% acetonitrile.

The next data set concerns Boophilus microplus. The data set is described as follows: Boophilus microplus injection test (BOOPMI Inj). To be noted: application rate of 20 μg/animal, assessed after 7 days by laying of fertile eggs. It counts as in vivo. The method, then:
Use Examples Boophilus microplus Injection Test (BOOPMI Inj) • Solvent: dimethyl sulphoxide
To prepare an appropriate active ingredient formulation, 10 mg of active ingredient are mixed with 0.5 ml of solvent and the concentrate is diluted with solvent to the desired concentration.
1 μl of the active ingredient solution is injected into the abdomen of 5 engorged adult female cattle ticks (Boophilus microplus). The animals are transferred into dishes and kept in a climate-controlled room.
The efficacy is assessed after 7 days by laying of fertile eggs. Eggs which are not visibly fertile are stored in a climate-controlled cabinet until the larvae hatch after about 42 days.
An efficacy of 100% means that none of the ticks has laid any fertile eggs; 0% means that all the eggs are fertile.

Setting [3] is: pH 2.7, HPLC method [a], read-out: logP[a].
The mark [4] stands for this setting: pH 2.7, HPLC, pH 2.7, read-out: log P[a].

For `C=CCn1c(OC)nn(-c2cc([S+]([O-])CC(F)(F)F)c(C)cc2F)c1=O` (racemic) [Example 183], the “logP[a]” value in data set [1] is given as 2.24. Besides, the efficacy in the data set on Tetranychus urticae and with Phaedon cochleariae (application rate of 500 g/ha) was 100% each time. The “logP[b]” value in data set [2] is listed as 2.21.
Consider `Cc1cc(F)c(-n2ncn(-c3ccc(F)cc3)c2=O)cc1[S+]([O-])CC(F)(F)F` (racemic) [Example 355], for which, in data set [1], the “logP[a]” value is reported as 2.45. The results for the efficacy in the data set on Tetranychus urticae and in the data set with Phaedon cochleariae (application rate of 500 g/ha) were 90% and 83%, respectively. The “logP[b]” value in data set [2] came out at 2.41.
Consider `Cc1cc(F)c(-n2nc(C)n(C)c2=O)cc1SCC(F)(F)F` [Example 10, 2-{2-Fluoro-4-methyl-5-[(2,2,2-trifluoroethyl)sulphanyl]phenyl}-4,5-dimethyl-2,4-dihydro-3H-1,2,4-triazol-3-one], for which the chromatographic logP in data set [1] (setting [3]) worked out at 2.42; in data set [1] (setting [4]), 2.42; in data set [2], 2.38. In addition, the results for the pest or weed control at 500 g/ha in the data set with Tetranychus urticae and with Phaedon cochleariae (application rate of 500 g/ha) were 90% and 100%, respectively.
Regarding `Cc1cc(F)c(-n2nc(C)n(C)c2=O)cc1[S+]([O-])CC(F)(F)F` (stereo not drawn) [Example 11, 2-{2-Fluoro-4-methyl-5-[(2,2,2-trifluoroethyl)sulphinyl]phenyl}-4,5-dimethyl-2,4-dihydro-3H-1,2,4-triazol-3-one], the chromatographic logP was determined as 1.57 in data set [1] (setting [3]), 1.57 in data set [1] (setting [4]) and 1.5 in data set [2]. In addition, the pest or weed control at 500 g/ha in the data set with Tetranychus urticae and in the data set with Phaedon cochleariae (application rate of 500 g/ha) was 100% throughout.
Turning to `COc1nn(-c2cc(SCC(F)(F)F)c(C)cc2F)c(=O)n1C` [Example 93], the “logP[a]” value in data set [1] came out at 2.78. Further, the efficacy was determined as 90% in the data set on Tetranychus urticae and 100% in the data set with Phaedon cochleariae (application rate of 500 g/ha). Also, the “logP[b]” value in data set [2] is 2.73.
Regarding `COc1nn(-c2cc([S+]([O-])CC(F)(F)F)c(C)cc2F)c(=O)n1C` (stereo not drawn) [Example 94], the “logP[a]” value in data set [1] came to 1.77. The same molecule had an efficacy in the data set on Phaedon cochleariae (application rate of 500 g/ha) of 83%. Moreover, the “logP[b]” value in data set [2] is 1.77.
Turning to `COc1nn(-c2ccc(C(F)(F)F)c(SCC(F)(F)F)c2)c(=O)n1C` [Example 95, 5-Methoxy-4-methyl-2-{3-[(2,2,2-trifluoroethyl)sulphanyl]-4-(trifluoromethyl)phenyl}-2,4-dihydro-3H-1,2,4-triazol-3-one], the chromatographic logP in data set [1] (setting [3]) was determined as 3.74; in data set [1] (setting [4]), 3.74; in data set [2], 3.64. Further, in the data set on Phaedon cochleariae (application rate of 500 g/ha), the pest or weed control at 500 g/ha was found to be 83%.
`COc1nn(-c2cc([S+]([O-])CC(F)(F)F)c(Cl)cc2F)c(=O)n1C` (stereo not drawn) [Example 98]: the “logP[a]” value in data set [1] turned out to be 2.12. Further, the values for the efficacy in the data set with Tetranychus urticae and in the data set on Phaedon cochleariae (application rate of 100 g/ha) were 100% and 83%, respectively. Moreover, the “logP[b]” value in data set [2] was found to be 2.10.
In the case of `COc1ccc(-n2nc(OC)n(C3CC3)c2=O)cc1[S+]([O-])CC(F)(F)F` (stereo not drawn) [Example 109], the “logP[a]” value in data set [1] came to 2.34. For the same molecule, the efficacy in the data set on Phaedon cochleariae (application rate of 500 g/ha) was 100%. Besides, in data set [2], the “logP[b]” value turned out to be 2.30.
Consider `Cc1ccc(-n2nc(OC(C)(C)C)n(C)c2=O)cc1SCC(F)(F)F` [Example 154], for which the “logP[a]” value in data set [1] is recorded as 4.55. Further, the values for the efficacy with Tetranychus urticae and in the data set with Phaedon cochleariae (application rate of 500 g/ha) were 100% and 83%, respectively. Also, in data set [2], the “logP[b]” value is 4.45.
As for `C=CCn1c(OC)nn(-c2ccc(C)c(SCC(F)(F)F)c2)c1=O` [Example 176], the “logP[a]” value in data set [1] was 3.87. Further, the efficacy in the data set on Tetranychus urticae was 90%; in the data set with Phaedon cochleariae (application rate of 500 g/ha), 100%. Also, in data set [2], the “logP[b]” value was 3.81.
For the molecule `C=CCn1c(OC)nn(-c2ccc(C)c([S+]([O-])CC(F)(F)F)c2)c1=O` (stereo not drawn) [Example 179], in data set [1], the “logP[a]” value was 2.61. In addition, the efficacy in the data set with Tetranychus urticae is on record as 90%; in the data set on Phaedon cochleariae (application rate of 500 g/ha) it was 100%. In addition, the “logP[b]” value in data set [2] was found to be 2.57.
As to `Cc1cc(F)c(-n2nc(C)n(N)c2=O)cc1[S+]([O-])CC(F)(F)F` (stereo not drawn) [Example 209], the “logP[a]” value in data set [1] came out at 1.36. The efficacy in the data set on Tetranychus urticae is listed as 100%; with Phaedon cochleariae (application rate of 500 g/ha), 83%. For the same molecule, in data set [2], the “logP[b]” value stood at 1.34.
`CNc1nn(-c2cc([S+]([O-])CC(F)(F)F)c(C)cc2F)c(=O)n1N` (stereo not drawn) [Example 219]: the “logP[a]” value in data set [1] is 1.32. Besides, the figures for the efficacy in the data set on Tetranychus urticae and with Phaedon cochleariae (application rate of 500 g/ha) were 90% and 100%, respectively. For the same molecule, in data set [2], the “logP[b]” value is 1.29.
Take `CCN(CC)c1nn(-c2cc([S+]([O-])CC(F)(F)F)c(C)cc2F)c(=O)n1N` (stereo not drawn) [Example 223]: the “logP[a]” value in data set [1] was 2.23. Also, the efficacy with Tetranychus urticae was determined as 90%; in the data set with Phaedon cochleariae (application rate of 500 g/ha) it was 100%. For the same molecule, the “logP[b]” value in data set [2] stood at 2.18.
With `CCn1c(SC)nn(-c2cc([S+]([O-])CC(F)(F)F)c(C)cc2F)c1=O` (stereo not drawn) [Example 270], the “logP[a]” value in data set [1] stood at 2.39. For the same molecule, the efficacy in the data set on Tetranychus urticae and with Boophilus microplus was 100% throughout. Besides, in data set [2], the “logP[b]” value was 2.33.
For `Cc1cc(F)c(-n2nnn(C)c2=O)cc1[S+]([O-])CC(F)(F)F` (stereo not drawn) [Example 301, 1-{2-Fluoro-4-methyl-5-[(2,2,2-trifluoroethyl)sulphinyl]phenyl}-4-methyl-1,4-dihydro-5H-tetrazol-5-one], the chromatographic logP in data set [1] (setting [3]) was 1.87; in data set [1] (setting [4]), 1.87; in data set [2], 1.82. Further, in the data set with Tetranychus urticae, the pest or weed control at 500 g/ha is 100%. Further, the efficacy in the data set with Boophilus microplus came to 100%.
For `Cc1cc(F)c(-n2nnn(C)c2=O)cc1SCC(F)(F)F` [Example 302, 1-{2-Fluoro-4-methyl-5-[(2,2,2-trifluoroethyl)sulphanyl]phenyl}-4-methyl-1,4-dihydro-5H-tetrazol-5-one], the chromatographic logP is 2.89 in data set [1] (setting [3]), 2.89 in data set [1] (setting [4]) and 2.86 in data set [2]. For the same molecule, the pest or weed control at 500 g/ha in the data set with Tetranychus urticae worked out at 100%. The same molecule registered an efficacy with Boophilus microplus of 100%.
Regarding `Cc1cc(F)c(-n2nn[nH]c2=O)cc1[S+]([O-])CC(F)(F)F` (stereo not drawn) [Example 303, 1-{2-Fluoro-4-methyl-5-[(2,2,2-trifluoroethyl)sulphinyl]phenyl}-1,4-dihydro-5H-tetrazol-5-one], the chromatographic logP in data set [1] (setting [3]) was found to be 1.59; in data set [1] (setting [4]), 1.59; in data set [2], 0.37. Besides, the pest or weed control at 500 g/ha in the data set on Phaedon cochleariae (application rate of 500 g/ha) was 100%.
For `COC1=CC(=O)N(c2ccc(C(F)(F)F)c(SCC(F)(F)F)c2)C1` [Example 322], the “logP[a]” value in data set [1] came to 3.31. For the same molecule, the efficacy in the data set with Phaedon cochleariae (application rate of 500 g/ha) amounted to 100%. Further, the “logP[b]” value in data set [2] stood at 3.25.
As for `COc1nn(-c2cc(SCC(F)(F)F)c(C)cc2F)c(=O)n1CC(F)(F)F` [Example 393], the “logP[a]” value in data set [1] is 3.50. The efficacy in the data set on Tetranychus urticae and in the data set on Boophilus microplus was 100% throughout. In addition, the “logP[b]” value in data set [2] was 3.47.
Consider `CCn1c(OCC(F)(F)F)nn(-c2cc([S+]([O-])CC(F)(F)F)c(C)cc2F)c1=O` (stereo not drawn) [Example 406], for which the “logP[a]” value in data set [1] came to 2.82. For the same molecule, the efficacy was determined as 90% in the data set with Tetranychus urticae and 100% in the data set with Boophilus microplus. Further, the “logP[b]” value in data set [2] came to 2.78.
For `Cc1cc(F)c(-n2nc(Br)n(C(C)C)c2=O)cc1SCC(F)(F)F` [Example 439, 5-Bromo-2-{2-fluoro-4-methyl-5-[(2,2,2-trifluoroethyl)sulphanyl]phenyl}-4-isopropyl-2,4-dihydro-3H-1,2,4-triazol-3-one], the results for the chromatographic logP in data set [1] (setting [3]), in data set [1] (setting [4]) and in data set [2] were 3.83, 3.83 and 3.8, respectively. For the same molecule, in the data set on Tetranychus urticae, the pest or weed control at 500 g/ha was found to be 100%. In the data set on Boophilus microplus, this molecule had an efficacy of 100%.
Consider `Cc1cc(F)c(-n2nc(Br)n(C(C)C)c2=O)cc1[S+]([O-])CC(F)(F)F` (stereo not drawn) [Example 442, 5-Bromo-2-{2-fluoro-4-methyl-5-[(2,2,2-trifluoroethyl)sulphinyl]phenyl}-4-isopropyl-2,4-dihydro-3H-1,2,4-triazol-3-one], for which the values for the chromatographic logP in data set [1] (setting [3]), in data set [1] (setting [4]) and in data set [2] were 2.68, 2.68 and 2.62, respectively. Moreover, the pest or weed control at 500 g/ha in the data set with Tetranychus urticae stood at 100%. In addition, the efficacy with Boophilus microplus amounted to 100%.
